“And” between values parts separate entries of the source, which are not always exact repeats. Equal entries are not always repeated. Where no end group is shown, it is not given here.
Assays:
VSV [1] = assay type: cell-based, Vesicular stomatitis virus (VSV)
VSV [2] = assay type: cell-based, Vesicular stomatitis virus (VSV); remark: listed apart in the source

Substance	Amount of virus in culture supernatant (VSV [1])	observation field occupied by a monolayer of living cells (VSV [2]) [%]
FFFIIGLIIGLFLVLRVGIHLKKRTLRKNDRKKR-NH2 [Sample 2]	4.7 Log10 TCID 50/mL and 3.5 Log10 TCID 50/mL	
MAIVGIVLLIVVTFLAIKTKKRTLRKNDRKKR-NH2 [Sample 1]	4.4 Log10 TCID 50/mL and 5 Log10 TCID 50/mL	
VLAVIIGFVILMFLIKLIGVLKKRTLRKNDRKKR-NH2 [Sample 3]	4.7 Log10 TCID 50/mL and 4.5 Log10 TCID 50/mL	≥ 90

Source: patent publication US11155582B2, “Antiviral peptide and use thereof” (priority 2018, dated 2021)
